Data from a melting point compilation (Tetko et al.; mined from patent text by program, amines drawn as free bases though some values may be those of a salt).

| SMILES | melting point |
| --- | --- |
| Cc1nc(Sc2ncccc2CC(=O)O)sc1CC(=O)O | 172 to 174 °C |
| O=C(NCCCCc1ccc(-c2ccc(=O)[nH]n2)cc1)c1cccnc1 | 190 to 191 °C |
| COc1cc(OCc2ccncc2)ccc1/C=C/c1cc(/C=C/c2cc3ccccc3[nH]2)n[nH]1 | 124 to 134 °C |
| Cc1nc2cccc(S(=O)(=O)n3c(COC(C)(C)C(=O)O)cc4cc(C(F)(F)F)ccc43)c2s1 | 98 to 100 °C |
| CC#CC(O)(c1ccc(C)cc1C)c1ccc(C)cc1C | 64 to 65 °C |
| CCOC(=O)c1ccc(C(C(N)=O)C(C)c2cc(OC)ccc2N2CCCCC2)cc1 (centres undefined) | 131 to 132 °C |
| CC(C)Oc1c(-c2ccc3c(c2)[C@@H](N2Cc4ccccc4C2=O)[C@H](O)C(C)(C)O3)c(=O)c1=O (relative stereo) | > 250 °C |
| COc1cccc(Nc2ccnc(Nc3cc(NC(C)=O)c(OC)c(OC)c3)n2)c1 | 158 to 160 °C |
| CN(CCOc1ccc(N)cc1)c1ccncc1 | 141 to 142 °C |
| O=C(O)c1cccc(-c2cccc(OCCc3cccc(F)c3)n2)c1 | 142 to 143 °C |
| O=C(Nc1ccc(S(=O)(=O)c2ncccn2)cc1)C(O)(C(F)F)C(F)F | 209 to 210 °C |
| CCOc1ccc2c(S(=O)(=O)c3ccc(OCc4ccccc4)cc3)c(C(C)C)cn2c1 | 153 °C |
| CC(C)(C)OC(=O)N1CCN2C(=O)N(c3cc(Cl)cc(Cl)c3)C(=O)C2C1 (centres undefined) | 60.2 °C |
| CC(=O)N1N=C2C(=Cc3ccccc3)CS(=O)(=O)CC2C1c1ccccc1 (centres undefined) | 218 to 220 °C |
| CN(CC(N)=O)C1Cc2ccccc2C1 | 122 to 123 °C |
| CCOC(=O)c1ccc(OCCCCCCCCCCCOc2ccc(Cl)cc2)cc1 | 94 to 95 °C |
| COc1ccc(-c2c(Cl)ncn2-c2ccc(S(C)(=O)=O)cc2)c(F)c1 | 176 to 198 °C |
| CSc1nc(N)n2nc(-c3ccco3)nc2n1 | 238 to 240 °C |
| O=[N+]([O-])c1ccc(-n2ccnn2)cc1 | 205 to 206 °C |
| NC(CCOS(=O)(=O)c1ccccc1)C(=O)Nc1ccccc1 (centres undefined) | 89 °C |
| CC(C)C1CC(=O)C(C(=O)Nc2ccc(Cl)c(Cl)c2)C(=O)C1 (centres undefined) | 138 °C |
| Cc1ccccc1C(CCC(=O)O)Oc1cc(OCc2ccsc2)ccc1-c1ncco1 (racemic) | 112 to 114 °C |
| Cc1cc(Cl)ccc1-n1nc(O)c2c(=O)c3ccc(Cl)cc3[nH]c2c1=O | 336 to 339 °C |
| CCOC(=O)c1ccc(Nc2ncccc2NS(=O)(=O)c2ccc(OC)cc2)cc1 | 172 to 173 °C |
| OCC1OC(n2cnc3c(NCc4ccccc4Cl)ncnc32)C(O)C1O (centres undefined) | 182 to 183 °C |

| SMILES | melting point |
| --- | --- |
| Clc1cc(-c2nnn[nH]2)nc(Cl)c1Cl | 197 to 198 °C |
| CC(=O)CN1CCc2ccc(C(=O)CCC(=O)N3CCC(c4ccc(Cl)cc4)CC3)cc2CC1 | 119 to 120 °C |
| O=C(O)c1ccccc1Nc1ccc(-c2ccc(Cl)c(Cl)c2)cc1 | > 220 °C |
| CCOC(=O)c1ccc(/C=C(\C)c2ccc3c(c2)C(C)(C)CC3(C)C)cc1 | 70 to 71 °C |
| COC(=O)c1ccc(S(C)(=O)=O)c(-c2cc(C(C)C)no2)c1 | 102 to 104 °C |
| CC(C)(C(=O)O)C(=O)NCCc1cn(C(c2ccccc2)(c2ccccc2)c2ccccc2)cn1 | 161 to 162 °C |
| Nc1c(N=O)c(=O)n(CC2CC2)c(=O)n1CC1CC1 | 228 to 229 °C |
| N#Cc1ccc(C(=O)Nc2ccc(-n3nc(C(F)(F)F)cc3C(F)(F)F)cc2)cc1 | 169 to 171 °C |
| CC1(CN2CCN(C(=O)OCc3ccccc3)CC2)Cn2cc([N+](=O)[O-])nc2O1 (centres undefined) | 130 to 132 °C |
| C/C(=C\CCC1(C)CCc2cc(O[Si](C)(C)C(C)(C)C)c(C)c(C)c2O1)CCl (centres undefined) | 56 to 58 °C |
| CCCCCCCCNc1c(Nc2ccc(CC(C)NC[C@H](O)COc3ccccc3)cc2)c(=O)c1=O (some centres undefined) | 146 to 155 °C |
| O=C1OC(=O)c2c1cccc2N1C(=O)CCCC1=O | 234 to 236 °C |
| COc1ccc(S(=O)(=O)NCCc2ccc(C(C)=O)cc2)cc1 | 122 to 123 °C |
| COC(=O)c1c(C(F)F)nc(C(F)(F)F)c(C(=O)Cl)c1CC(C)C | 71 to 75 °C |
| BrCc1ccc2c(c1)C1(c3ccccc3-2)c2ccccc2-c2ccc(CBr)cc21 | 175 to 177 °C |
| COC1OC(CO)C(O)C(NC(=O)N(C)N=O)C1O (centres undefined) | 116 to 117 °C |
| CCCCOC(=O)Cn1cccc1-c1nc(-c2ccc(OC)cc2)c(-c2ccc(OC)cc2)s1 | 98 to 101 °C |
| Cc1nn(C)c(C(=O)N(C)C)c1[N+](=O)[O-] | 57 to 59.5 °C |
| Cc1cn(-c2cccc(O)c2)cn1 | 203 to 205 °C |
| CN1C(C)(C)CC(NC(=O)c2ccc(-c3nc4cc(Cl)c(Cl)cc4[nH]3)c(O)c2)CC1(C)C | > 250 °C |
| Nc1ncnc2c1ncn2[C@H]1C=C[C@@H](O)C1 (racemic) | 180 °C |
| O=C(C(=O)c1cccc(Br)c1)c1ccncc1 | 88 to 90 °C |
| CCN(CC)Cc1cc(Nc2snc3ccccc23)ccc1O | 164 to 165 °C |
| Cc1cc(C2=NN[C@H](C)Cc3cc4c(cc32)OCO4)ccc1N | 193 to 196 °C |
| CN1CC(c2ccc(Cl)cc2)=NNC1=O | 195 to 197 °C |

| SMILES | melting point |
| --- | --- |
| COC(=O)C1=C(C)Nc2nccn2C1c1ccccn1 (centres undefined) | 224 to 226 °C |
| N#CN=C(Nc1ccccc1Br)Nc1ccc(C#N)c(Br)c1O | 142 °C |
| Cn1nc(SCSc2nn(C)c3ccc(Cl)cc3c2=O)c(=O)c2cc(Cl)ccc21 | 352 to 354 °C |
| Cc1c(C)c2c(c(C)c1NC=O)CC(C)(CSc1ccccc1)O2 (centres undefined) | 130 to 131 °C |
| CCOC(=O)c1nc2ccc(N)cc2[nH]1 | 147 to 149 °C |
| CC(=O)OCc1cccc(Nc2nccc(-c3cnn(C(C)=O)c3-c3ccccc3)n2)c1 | 133 to 134 °C |
| CC(C)CCCC(C)C1C(O)CC2C3=CC=C4C(C)(C)C(O)CCC4(C)C3CCC21C (centres undefined) | 171 to 173 °C |
| CCC(Cl)Cc1sc(O)nc1C (centres undefined) | 84 to 85 °C |
| O=C(ON1C(=O)CCC1=O)c1ccc(-c2ccc(S(=O)(=O)NCCO)cc2)[nH]c1=O | 204 to 205 °C |
| C#Cc1ccc(N)nc1 | 143 °C |
| COc1cccc2c(=O)c(C)c3sc4ccccc4nc-3c12 | 170 to 171 °C |
| Cc1cc(SC2=C(O)CC(CCc3ccc(O)cc3)(CCc3ccc(O)cc3)OC2=O)c(C(C)(C)C)cc1OS(=O)(=O)N1CCN(C)CC1 | 150 °C |
| O=C(Nc1ccccn1)Nc1nc(-c2ccccc2)cs1 | 247 to 249 °C |
| O=C(Nc1ccc(Br)cc1)N1CCN2CCC1CC2 | 228 to 231 °C |
| COc1ccc(-n2c(=O)c(C(=O)O)nc3c(Cl)cccc32)cc1 | 198 to 200 °C |
| CCOC(=O)CC1C(=O)N(CCc2c[nH]c3cc(C)ccc23)CCN1C(=O)c1ccccc1 (centres undefined) | 155 °C |
| CCCCCCCCCCC1CNC(=O)O1 (centres undefined) | 86 to 87 °C |
| NC1=NC2(CN(C(=O)OCc3ccccc3)C2)Nc2cccc(F)c21 | 157 to 159 °C |
| Cc1ccc2c(c1)[nH]c(=O)n2CCCO | 114 °C |
| CNC(=O)c1cnn(-c2ccc(OC)cc2)c1Cl | 144 to 146 °C |
| O=CCCC12CC(c3ccccc31)c1ccccc12 | 135 to 140 °C |
| Nc1c(-c2ccc(-c3ccccc3F)cc2)nc2ccc(C(F)(F)F)cc2c1C(=O)O | 255 to 260 °C |
| CCOC(=O)c1cc(-c2cn(Cc3ccccc3C#N)c(=O)n2-c2ccc(F)cc2)ccn1 | 164 °C |
| CCOC(=O)CNC(=O)c1oc2cc(-c3ccc(Cn4c(C)nc5ccccc54)cc3)ccc2c1C | 184 to 186 °C |
| CN1CCN(c2cccc3c2C[C@H](NC(=O)c2ccc(N4CCNCC4)cc2)CO3)CC1 | > 102 °C |

| SMILES | melting point |
| --- | --- |
| O=c1[nH]c2cc3ccccc3cc2nc1-c1cc(O)c(O)c([N+](=O)[O-])c1 | > 300 °C |
| Cc1nc(SCc2ccc(C(=O)O)s2)sc1CC(=O)O | 188 to 190 °C |
| COC(=O)c1nn(Cc2ccc(Br)cc2F)c(=O)c2ccc(F)cc12 | 131 to 134 °C |
| O=NN1CCc2cc(Cl)ccc21 | 120 to 122 °C |
| COc1cccc(C2C(=O)NC(=O)C2c2cn3c4c(cccc24)CCC3)c1 (centres undefined) | 87 to 91 °C |
| O=C(Nc1cccc2c1C1CCCCN1C2=O)Nc1nc(Cl)c(Cl)c(Cl)c1Cl (centres undefined) | 246 °C |
| O=C1c2ccccc2C(=O)N1CCc1ccc(CCC2CCCCC2)cc1 | 135 to 138 °C |
| COC(=S)c1cc(F)c(-c2ccccc2)nc1Nc1ccc(F)cc1F | 128 °C |
| [N-]=[N+]=NS(=O)(=O)c1cc(C(=O)O)cc(S(=O)(=O)N=[N+]=[N-])c1 | 181 to 183 °C |
| Clc1nc2ncsc2nc1Cl | 124 to 125 °C |
| Cc1ccc(Cc2cnc(NCCCCc3ncc(I)cc3C)[nH]c2=O)cn1 | 160 to 162 °C |
| CC(C)(C)SC(=O)C=CC1C(C(=O)OCc2ccc(F)c(Oc3ccccc3)c2)C1(C)C (centres undefined) | 82 °C |
| NS(=O)(=O)c1ccc(-c2cccc(-c3nc(-c4ccc(F)c(F)c4)cc(C(F)(F)F)n3)c2)s1 | 238 °C |
| C#CCOc1cc(Oc2ccc(Cl)cc2)ncn1 | 100 °C |
| Cc1cc(C)cc(COC[C@@H](NC(=O)OC(C)(C)C)c2ccccc2)c1 | 46 to 49 °C |
| Nc1cc(SCc2ccccc2)ccc1[N+](=O)[O-] | 113 to 115 °C |
| CC(C)(c1ccc(Oc2ccc(N)cc2)cc1)c1cccc(C(C)(C)c2ccc(Oc3ccc(N)cc3)cc2)c1 | 180 °C |
| COC(=O)C(Cc1ccccc1)Oc1ccc2cc(-c3cnc(-c4cn(Cc5ccccc5)c5ccccc45)o3)ccc2c1 (centres undefined) | 188 to 190 °C |
| CC[C@H](CO)Nc1nc(NCc2ccccc2)c2nnn(C(C)C)c2n1 | 115 to 118 °C |
| COC(=O)c1ccc(Cl)c(C=O)c1SC | 66.5 to 68.1 °C |
| O=C(NCc1ccc(/C=C/C(c2cc(Cl)c(Cl)c(Cl)c2)C(F)(F)F)cc1Cl)C(=O)NCC(F)(F)F (centres undefined) | 161 to 163 °C |
| O=C(O)c1ccccc1C(=O)c1ccc(Cl)cc1Cl | 178 to 181 °C |
| O=c1[nH]c2ccc(CCN3CCN(c4cc(O)cc5cccnc45)CC3)cc2o1 | 200 °C |
| O=C(COCc1ccccc1Cl)Nc1ccccc1 | 130 to 132 °C |
